Assay results reported in patent publication US20240408071A1, “NOVEL COMBINATION OF SEROTONIN RECEPTOR (5-HTR2B) ANTAGONIST AND AN IMMUNOMODULATOR AND CHEMOTHERAPEUTIC DRUGS FOR INHIBITION OF CANCER” (NATIONAL CENTRE FOR CELL SCIENCE, priority 2021, published 2024).

Columns and labels:
[1] = tested on: OT-II CD4 T cells; experiment: OT-II peptide-specific proliferation of CFSE-tagged OT-II CD4 T cells in vitro; type: cell-based, mouse; conditions: BW-723C86 10 μM, OT-II peptide (Ova323-339), 5 days (FIG. 12A-B)
Procedure: FIG. 12 depicts that 5-HTR2B signalling affects the antigen-specific proliferation of CD4 T cells: (A-B) Total CD4 T cells were harvested from the lymph node of OT-II mice and they were tagged with CFSE and cultured in vitro in the presence or absence of OT-II peptide (Ova323-339), IL-2, 5-HTR2B agonist BW-723C86 (10 μM), Serotonin (20 μM) or 5-HTR2B antagonist RS-127445 (15 μM) for 5 days. After 5 days the proliferation of OT-II tetramer^+ CD4 T cells was measured and plotted as histogram overlay (A) or as statistical data (B). (C-D) Flow cytometric data and statistical analysis of the percentage of intra-tumoral OT-II-tetramer^+ IFNγ^+ CD4 T cell population from the control and RS-127445 treated MC38-ova tumor-bearing mice. (E-F) Flow cytometric data and statistical analysis of the percentage of intra-tumoral OT-II-tetramer^+ IFNγ^+ CD4 T cell population from the control and RS-127445 treated MC38-ova tumor-bearing mice. […]
A simple adoptive transfer experiment was performed to study the enhancement of CTL response in general or antigen-specific. […] The CFSE-tagged total lymph node cells from […] were cultured in the presence or absence of OT-II peptide (Ova323-339) 5-HTR2B agonist (BW-723C86), serotonin, and 5-HTR2B antagonist (RS-127445) as indicated in the figure for 5 days and the proliferation was measured (FIG. 12A-B). […]

[2] = target: 5-HTR2B receptor subtype (Homo sapiens, UniProt P41595); conditions: more specific to 5-HTR2B; cited from earlier work
Chain of 5-HTR2B receptor subtype (P41595 whole entry): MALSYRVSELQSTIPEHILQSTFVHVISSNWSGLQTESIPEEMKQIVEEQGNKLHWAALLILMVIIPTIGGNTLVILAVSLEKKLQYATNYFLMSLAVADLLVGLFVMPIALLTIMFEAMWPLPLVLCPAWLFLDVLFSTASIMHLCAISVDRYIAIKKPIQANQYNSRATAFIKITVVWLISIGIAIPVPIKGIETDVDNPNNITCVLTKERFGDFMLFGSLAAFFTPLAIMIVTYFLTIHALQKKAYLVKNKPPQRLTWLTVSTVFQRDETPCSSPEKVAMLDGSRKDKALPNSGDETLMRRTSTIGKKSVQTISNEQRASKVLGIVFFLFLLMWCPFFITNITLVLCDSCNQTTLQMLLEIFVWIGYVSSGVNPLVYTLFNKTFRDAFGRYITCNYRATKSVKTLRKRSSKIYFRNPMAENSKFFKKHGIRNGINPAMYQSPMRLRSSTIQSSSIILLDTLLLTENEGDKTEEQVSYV

| SMILES | OT-II peptide-specific proliferation of OT-II CD4 T cells [1] | specificity to the 5-HTR2B receptor subtype [2] |
| --- | --- | --- |
| CC(N)Cc1c[nH]c2ccc(OCc3cccs3)cc12 (centres unmarked) [BW-723C86] | significantly reduced | – |
| CC(C)c1cc(-c2ccc(F)c3ccccc23)nc(N)n1 [RS-127445] | – | ~1000 times |
